For assay [1], the target named is T1, P. falciparum DHODH (Plasmodium falciparum, UniProt Q08210).
T1 construct: His6 (N); made in house; host or cells: E. coli BL21-DE3 (phage-resistant)
Nature of the assay: DHODH inhibition, steady-state DCIP assay (PfDHODH). The following applies: recombinant PfDHODH, DCIP method, 25°C, 5 nM enzyme. The class given is biochemical.

Assay [2] deals with P. falciparum 3D7. Briefly: Asexual blood-stage growth inhibition assay, SYBR green method. In kind it is cell-based. The conditions noted are these: Plasmodium falciparum, 3D7, 72 h, ring-stage 3D7 parasites.
Assay [3] addresses T2, Human DHODH (Homo sapiens, UniProt Q02127).
T2 construct: C-terminal His6-tagged HsDHODH residues 29-395 in pET-22b (start ^29MATGDE); His6 (C); made in house; host or cells: E. coli BL21-DE3 (phage-resistant)
Briefly: DHODH inhibition, steady-state DCIP assay (human DHODH). In kind it is biochemical. The following applies: recombinant HsDHODH, DCIP method, 25°C, 5 nM enzyme; top concentration 100 µM or 30 µM.

Assay [4] concerns the target P. vivax DHODH (Plasmodium vivax, UniProt A5K1N1). Briefly: DHODH inhibition, steady-state DCIP assay (PvDHODH). The class given is biochemical. The following applies: recombinant PvDHODH, DCIP method, 25°C, 5 nM enzyme; read-out: P. vivax DHODH (IC50).

Data on one compound can be found in patent EP4680608B1, “2,6-DIHYDRO-7H-PYRAZOLO[3,4-C]PYRIDIN-7-ONE DERIVATIVES AS ANTI-MALARIAL AGENTS” (MMV Medicines for Malaria Venture, priority 2024, dated 2025).

Each structure is given as a SMILES string. Some results are limits rather than exact numbers.

T1 sequence (Q08210 158-569): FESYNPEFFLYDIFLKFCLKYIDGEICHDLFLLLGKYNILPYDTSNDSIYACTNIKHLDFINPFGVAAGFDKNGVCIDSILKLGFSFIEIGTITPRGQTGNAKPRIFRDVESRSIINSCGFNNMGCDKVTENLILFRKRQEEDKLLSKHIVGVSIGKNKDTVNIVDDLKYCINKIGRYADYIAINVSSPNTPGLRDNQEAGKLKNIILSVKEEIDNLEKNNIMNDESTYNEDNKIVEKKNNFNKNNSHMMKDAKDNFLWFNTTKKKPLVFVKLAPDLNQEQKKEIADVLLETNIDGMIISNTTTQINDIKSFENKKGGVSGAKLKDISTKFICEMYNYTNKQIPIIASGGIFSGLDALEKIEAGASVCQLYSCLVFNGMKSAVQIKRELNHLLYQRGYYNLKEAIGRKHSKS
T2 sequence (Q02127 29-395): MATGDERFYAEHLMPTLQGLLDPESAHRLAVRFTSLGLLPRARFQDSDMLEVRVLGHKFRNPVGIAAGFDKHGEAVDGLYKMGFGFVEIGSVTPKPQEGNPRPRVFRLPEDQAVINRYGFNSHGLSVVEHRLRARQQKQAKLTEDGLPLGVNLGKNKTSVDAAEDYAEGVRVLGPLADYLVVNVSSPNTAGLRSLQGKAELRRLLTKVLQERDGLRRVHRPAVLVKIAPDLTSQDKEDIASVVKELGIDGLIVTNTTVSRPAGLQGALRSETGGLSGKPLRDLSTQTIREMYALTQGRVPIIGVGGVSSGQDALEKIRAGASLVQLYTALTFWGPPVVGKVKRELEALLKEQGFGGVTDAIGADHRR
Chain of P. vivax DHODH (A5K1N1 entry or part of it): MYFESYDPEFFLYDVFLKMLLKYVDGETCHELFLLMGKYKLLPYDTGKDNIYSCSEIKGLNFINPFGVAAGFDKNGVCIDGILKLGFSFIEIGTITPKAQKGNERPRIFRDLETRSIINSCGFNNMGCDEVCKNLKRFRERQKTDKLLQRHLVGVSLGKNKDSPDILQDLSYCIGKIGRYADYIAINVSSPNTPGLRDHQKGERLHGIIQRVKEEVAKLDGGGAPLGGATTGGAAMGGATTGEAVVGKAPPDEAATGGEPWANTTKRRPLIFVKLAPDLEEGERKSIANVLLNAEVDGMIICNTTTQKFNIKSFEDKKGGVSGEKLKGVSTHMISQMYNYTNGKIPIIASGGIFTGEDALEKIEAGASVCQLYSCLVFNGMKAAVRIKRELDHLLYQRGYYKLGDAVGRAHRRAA

As a reminder, the IC50 is the concentration needed to halve the response being measured. The term EC50 denotes the concentration needed to bring the measured effect to its halfway point. Take `Cn1nc2c(=O)n(CC(F)(F)F)cnc2c1[C@](O)(c1ccc(C(F)(F)F)c(Cl)c1)C(F)(F)F` [5-26, (R)-3-(1-(3-chloro-4-(trifluoromethyl)phenyl)-2,2,2-trifluoro-1-hydroxyethyl)-2-methyl-6-(2,2,2-trifluoroethyl)-2,6-dihydro-7H-pyrazolo[4,3-d]pyrimidin-7-one]: the 50% inhibitory concentration (IC50) is 17 nM in assay [1], greater than 30000 nM in assay [3] and 25 nM in assay [4]. In assay [2], this compound registered a concentration giving a half-maximal response (EC50) of 0.39 nM.
